Test results: the Kinase Knowledgebase extract (Sharma et al. 2016)

What was measured:
CDK2 = CDK2 (UniProt P24941); assay: Enzyme Assay
EGFR (mouse) = EGFR (mouse) (UniProt P00533); settings: 3t3

SMILES | IC50 (CDK2) [nM] | IC50 (EGFR (mouse)) [nM]
O=C1Nc2ccc(F)cc2/C1=C/c1[nH]cc2c1CCOC2=O | 80 | > 20000
CNS(=O)(=O)c1ccc2c(c1)/C(=C/c1[nH]cc3c1CCNC3=O)C(=O)N2 | 9 | > 20000
O=C1Nc2cc(-c3ccccc3)ccc2/C1=C/c1[nH]cc2c1CCOC2=O | > 10000 | > 20000
O=C1Nc2ccc(S(=O)(=O)N3CCCc4ccccc43)cc2/C1=C/c1[nH]cc2c1CCOC2=O | 550 | > 20000
COc1ccc(-c2ccc3c(c2)NC(=O)/C3=C\c2[nH]cc3c2CCOC3=O)cc1 | 1000 | > 20000
O=C1Nc2cc(C(=O)O)ccc2/C1=C/c1[nH]cc2c1CCOC2=O | 1080 | > 20000
COc1ccc2c(c1)NC(=O)/C2=C\c1[nH]cc2c1CCOC2=O | 1550 | 
Cc1c(Br)ccc2c1/C(=C/c1[nH]cc3c1CCOC3=O)C(=O)N2 | 160 | > 20000
O=C1Nc2ccc(C(=O)O)cc2/C1=C/c1[nH]cc2c1CCOC2=O | 4 | > 20000
O=C1Nc2ccc(C(=O)N3CCCC3)cc2/C1=C/c1[nH]cc2c1CCNC2=O | 70 | > 20000
O=C1Nc2cc(Cl)ccc2/C1=C/c1[nH]cc2c1CCNC2=O | 7230 | > 20000
NS(=O)(=O)c1ccc2c(c1)/C(=C/c1[nH]cc3c1CCOC3=O)C(=O)N2 | 10 | > 20000
Cc1c(Cl)ccc2c1/C(=C/c1[nH]cc3c1CCOC3=O)C(=O)N2 | 310 | > 20000
O=C1Nc2ccc(S(=O)(=O)N3CCc4cc(Br)ccc43)cc2/C1=C/c1[nH]cc2c1CCOC2=O | 2860 | > 20000
O=C1Nc2ccc(-c3ccccc3)cc2/C1=C/c1[nH]cc2c1CCOC2=O | 3840 | > 20000
NS(=O)(=O)c1ccc2c(c1)/C(=C/c1[nH]cc3c1CCNC3=O)C(=O)N2 | < 5 | > 20000
O=C1Nc2ccc(F)cc2/C1=C/c1[nH]cc2c1CCNC2=O | 300 | > 20000
COc1ccc2c(c1)/C(=C/c1[nH]cc3c1CCNC3=O)C(=O)N2 | 290 | > 20000
CC(C)NS(=O)(=O)c1ccc2c(c1)/C(=C/c1[nH]cc3c1CCOC3=O)C(=O)N2 | 60 | > 20000
O=C1Nc2ccc3c(c2/C1=C/c1[nH]cc2c1CCOC2=O)CCOS3(=O)=O | 130 | > 20000
O=C1Nc2ccc(S(=O)(=O)Nc3cccc(Cl)c3)cc2/C1=C/c1[nH]cc2c1CCOC2=O | 490 | > 20000
COc1ccccc1-c1ccc2c(c1)NC(=O)/C2=C\c1[nH]cc2c1CCOC2=O | > 10000 | > 20000
O=C1Nc2cc(-c3ccc(F)cc3)ccc2/C1=C/c1[nH]cc2c1CCOC2=O | 1060 | > 20000
O=C1Nc2cc(-c3cccnc3)ccc2/C1=C/c1[nH]cc2c1CCOC2=O | 5690 | > 20000
O=C1Nc2cc(Cl)ccc2/C1=C/c1[nH]cc2c1CCOC2=O | 410 | > 20000
O=C1Nc2cccc(CCO)c2/C1=C/c1[nH]cc2c1CCNC2=O | 450 | > 20000

SMILES | IC50 (CDK2) [nM] | IC50 (EGFR (mouse)) [nM]
O=C1Nc2ccc(S(=O)(=O)N3CCc4ccccc4C3)cc2/C1=C/c1[nH]cc2c1CCOC2=O | 730 | > 20000
CNS(=O)(=O)c1ccc2c(c1C)/C(=C/c1[nH]cc3c1CCOC3=O)C(=O)N2 | 5.5 | > 20000
CN(c1cccc(Cl)c1)S(=O)(=O)c1ccc2c(c1)/C(=C/c1[nH]cc3c1CCOC3=O)C(=O)N2 | 9950 | > 20000
O=C1Nc2c(Cl)cccc2/C1=C/c1[nH]cc2c1CCOC2=O | 2580 | > 20000
O=C1Nc2ccc(S(=O)(=O)Nc3ccccc3)cc2/C1=C/c1[nH]cc2c1CCOC2=O | 40 | > 20000
CNS(=O)(=O)c1ccc2c(c1)/C(=C/c1[nH]cc3c1CCOC3=O)C(=O)N2 | 5 | > 20000
O=C1Nc2ccc(Br)cc2/C1=C/c1[nH]cc2c1CCNC2=O | 530 | > 20000
Cc1cccc2c1/C(=C/c1[nH]cc3c1CCOC3=O)C(=O)N2 | 270 | > 20000
CN(C)S(=O)(=O)c1ccc2c(c1)/C(=C/c1[nH]cc3c1CCOC3=O)C(=O)N2 | 30 | > 20000
COc1ccc2c(c1)/C(=C/c1[nH]cc3c1CCOC3=O)C(=O)N2 | 40 | > 20000
O=C1Nc2ccc(C(=O)N3CCOCC3)cc2/C1=C/c1[nH]cc2c1CCNC2=O | 560 | > 20000
O=C1Nc2ccc(S(=O)(=O)N3CCc4ccccc43)cc2/C1=C/c1[nH]cc2c1CCOC2=O | 350 | > 20000
O=C1Nc2cc(F)ccc2/C1=C/c1[nH]cc2c1CCOC2=O | 360 | > 20000
O=C1Nc2ccc(-c3cccc(C(=O)O)c3)cc2/C1=C/c1[nH]cc2c1CCOC2=O | 6710 | > 20000
O=C1Nc2cc(-c3ccccc3)ccc2/C1=C/c1[nH]cc2c1CCNC2=O | 6010 | > 20000
CC(=O)Nc1ccc2c(c1)NC(=O)/C2=C\c1[nH]cc2c1CCOC2=O | 7860 | > 20000
O=C1Nc2cc(Br)ccc2/C1=C/c1[nH]cc2c1CCOC2=O | 970 | > 20000
O=C1Nc2cc(Br)ccc2/C1=C/c1[nH]cc2c1CCNC2=O | > 10000 | > 20000
O=C1Nc2ccc(-c3ccccc3)cc2/C1=C/c1[nH]cc2c1CCNC2=O | 3200 | > 20000
CN(C)C(=O)c1ccc2c(c1)/C(=C/c1[nH]cc3c1CCNC3=O)C(=O)N2 | 90 | > 20000
O=C1Nc2ccc(Cl)cc2/C1=C/c1[nH]cc2c1CCOC2=O | 90 | > 20000
O=C1Nc2cccc(CCO)c2/C1=C/c1[nH]cc2c1CCOC2=O | 30 | > 20000
CN(C)S(=O)(=O)c1ccc2c(c1)/C(=C/c1[nH]cc3c1CCNC3=O)C(=O)N2 | 100 | > 20000
COc1cccc(-c2ccc3c(c2)NC(=O)/C3=C\c2[nH]cc3c2CCOC3=O)c1 | > 10000 | > 20000
O=C1Nc2ccc(Br)cc2/C1=C/c1[nH]cc2c1CCOC2=O | 240 | > 20000
O=C1Nc2cc(-c3cccc(C(=O)O)c3)ccc2/C1=C/c1[nH]cc2c1CCOC2=O | 5360 | 18700
